Assay results reported in PMC4236014, “Intestine-Targeted DGAT1 Inhibition Improves Obesity and Insulin Resistance without Skin Aberrations in Mice” (PLoS ONE, 2014).
Where “and” joins values, the source holds several entries; their conditions need not be identical. Equal values may be shown once. Entries after “also recorded” stand apart in the source; their conditions may differ.

Columns and labels:
[1] = mouse plasma protein binding; assay type: in vitro ADME
mouse skin homogenates = test: Triglyceride synthesis in mouse skin homogenates; assay type: biochemical
[2] = Compound distribution in mice (plasma, skin, intestine) after oral 30 mg/kg; assay type: in vivo, C57BL/6J mice; settings: for Tmax / concentration at 24 h / Kp / Cmax: C57BL/6J, mouse; for Tmax: in vivo; for concentration at 24 h: intestine, 24 h after administration, read-out: C 24 in intestine; for Kp: intestine/plasma, read-out: Intestine/Plasma ratio at T max; for Cmax: plasma, read-out: C max in plasma; for Cmax / C max in intestine / C max in skin: 3 mice
Procedure: Exposure was analyzed using blood, skin, and intestine samples from the C57BL/6J mice orally treated with 30 mg/kg of a compound. At 1, 4, 8, and 24 h after the administration, mice were anesthetized with isoflurane, and blood, skin, and intestine samples were collected. Three mice were used in each group. The blood samples were collected with sodium heparin, subjected to centrifugation, and plasma samples were collected. The skin and the intestine were homogenized and centrifuged to collect samples. The compound concentrations in each tissue sample with values equal to or greater than the lower limit of quantification (LLOQ; 0.005 µg/ml) were used for analyses (HPLC-MS/MS: Shiseido, Tokyo, Japan, Thermofisher Scientific, Waltham, MA).

HT-29 human colon cells = test: Triglyceride synthesis in HT-29 cells (14C oleic acid incorporation); assay type: cell-based; settings: Compound A 0.3 to 3 µM, Compound B 0.1 to 3 µM
Procedure: (§1) The HT-29 cell line (American Type Culture Collection, Manassas, VA) was maintained in the McCoy’s 5A medium (Life Technologies, Carlsbad, CA) containing 10% fetal bovine serum. The HepG2 cell line (American Type Culture Collection) was maintained in the Dulbecco’s Modified Eagle Medium (Sigma-Aldrich, St. Louis, MO) containing 10% fetal bovine serum. For the experiments, the HT-29 cells were plated in 12-well plates at 3×10^5 cells, the HepG2 cells were plated in 12-well plates at 5×10^5 cells. The cells were cultured in serum-free media for 24 h, and incubated with a compound and oleic acid-albumin (Sigma-Aldrich) solubilized in dimethyl sulfoxide (final 0.1%) for 30 min. The triglyceride synthesis was initiated by the addition of ^14C oleic acid (0.2 µCi). The cells were washed in PBS and harvested into the organic phase using hexane:2-propanol (3∶2) 30 min after initiation of the triglyceride synthesis. The solvent was evaporated, the extracts were solubilized in chloroform, and lipids were separated via TLC. Incorporation of the radiolabel into the triglyceride fraction was analyzed using BAS2000 in triplicate. The IC50 of each compound was calculated using GraphPad Prism.

HepG2 human liver cells = test: Triglyceride synthesis in HepG2 cells (14C oleic acid incorporation); assay type: cell-based; settings: Compound A 0.3 to 3 µM, Compound B 0.1 to 3 µM
Procedure: as §1

Log D (lipophilicity) = assay type: physicochemical
[3] = test system: skin of diet-induced-obese (DIO) mice; test: Effects on the skin in diet-induced-obese (DIO) mice, 4-week treatment, histopathology; assay type: in vivo, C57BL/6J mice; settings: 4 weeks; for skin aberrations (histopathology): oral, 30 mg/kg Compound A once daily, 30 mg/kg Compound B twice daily, 30 mg/kg
Procedure: After 10 weeks on high-fat diet, mice became obese (36±0.24 g). […] After 4 weeks of the treatment, all the animals were sacrificed. The skin (dorsolateral lesion) was removed and then fixed in 10% neutral buffered formalin, processed, embedded in paraffin, cut into thin sections and stained with Hematoxylin and Eosin. Histopathological examinations were performed. The size of the sebaceous glands were measured using WinROOF (Mitani Corporation, Tokyo, Japan).

[4] = test system: glucagon-like peptide-1 (GLP-1) secretion; test: GLP-1 secretion in mice after corn oil; assay type: in vivo; settings: oral 10 and 30 mg/kg, 2 h after corn oil
Procedure: Mice were divided into treatment groups, each consisting of 6–8 mice, based on the body weight for the purpose of simplification of dose calculation. […] Blood samples were collected 2 h later, and the plasma GLP-1 level was determined by using Glucagon Like Peptide-1 (Active) ELISA Kit (Linco Research, Inc., St. Charles, MO).

human DGAT1 = target: T1, human DGAT1 (Homo sapiens, UniProt O75907); test: DGAT1 enzyme assay (human DGAT1 in Sf9 insect microsomes, 14C decanoyl CoA); assay type: biochemical; settings: enzyme expressed in insect microsomes; read-out: hDGAT1 IC50
T1 construct: made in house; host or cells: Sf9 insect cells (baculovirus)
T1 sequence (O75907 1-488): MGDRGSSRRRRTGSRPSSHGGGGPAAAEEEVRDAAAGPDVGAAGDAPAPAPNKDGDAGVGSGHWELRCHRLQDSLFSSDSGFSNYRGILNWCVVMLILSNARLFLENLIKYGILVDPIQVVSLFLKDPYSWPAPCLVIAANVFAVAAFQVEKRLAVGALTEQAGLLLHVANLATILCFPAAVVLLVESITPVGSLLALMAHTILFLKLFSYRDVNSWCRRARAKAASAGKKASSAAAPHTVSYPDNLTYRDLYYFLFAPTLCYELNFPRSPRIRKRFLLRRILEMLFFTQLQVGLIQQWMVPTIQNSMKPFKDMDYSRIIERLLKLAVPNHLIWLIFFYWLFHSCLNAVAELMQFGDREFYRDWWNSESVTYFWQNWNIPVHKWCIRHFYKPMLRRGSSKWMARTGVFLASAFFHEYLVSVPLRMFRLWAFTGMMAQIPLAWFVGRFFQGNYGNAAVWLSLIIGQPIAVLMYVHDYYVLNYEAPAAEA
Procedure: (§2) The effects of the DGAT1 inhibitors were assessed using human (BC015762 from HeLa cell) and mouse DGAT1 (NM_010046 from mouse testis) in Sf9 insect microsomes. […] The Sf9 cells were homogenized and centrifuged at 600 g for 20 min. Thereafter, the supernatant was centrifuged at 10000 g for 1 h and the precipitate was collected as the […].
(§3) The mixture was incubated at room temperature for 45 min. The reaction was stopped by adding 0.5 M HCl and the incubated mixture was filtered using MultiscreenHTS-FB (Millipore, Billerica, MA). The human DGAT1 activity was quantified by counting the radioactivity of synthesized ^14C triglycerides by the Microbeta scintillation counter (PerkinElmer, Waltham, MA) in duplicate. […] Mouse DGAT1 enzyme assays were carried out in the same way.

[5] = test system: diet-induced-obese (DIO) mice; test: Long-time (4-week) treatment in DIO mice; assay type: in vivo, C57BL/6J mice; settings: 4 weeks
Procedure: The DIO mice were fed with high-fat diet during the 4-week treatment period. Mice were fasted for 4 hours prior to blood collection. Plasma glucose, insulin, triglyceride, and free fatty acid concentrations were determined by using Glucose CII Test Wako (Wako), ultra sensitive mouse ELISA (Morinaga, Yokohama, Japan), L type WAKO TG H, and HA test WAKO NEFA (Wako), respectively.

[6] = test system: postprandial hyperlipidemia in mice; test: Postprandial hyperlipidemia in mice (corn oil load); assay type: in vivo, C57BL/6J mice
Procedure: Eight-week-old male C57BL/6J mice were divided into treatment groups, each consisting of 7–8 mice, based on the body weight for the purpose of simplification of dose calculation. […] Blood samples were collected 1, 2, and 3 h later, and the plasma triglyceride level was determined by using WAKO TG H (Wako, Osaka, Japan). The area under the curve (AUC) of plasma triglyceride (AUCtriglyceride) was calculated.

mouse DGAT1 = target: T2, mouse DGAT1 (Mus musculus, UniProt Q9Z2A7); test: DGAT1 enzyme assay (mouse DGAT1 in Sf9 insect microsomes, 14C decanoyl CoA); assay type: biochemical; settings: enzyme expressed in insect microsomes; read-out: mDGAT1 IC50
T2 construct: made in house; host or cells: Sf9 insect cells (baculovirus)
T2 sequence (Q9Z2A7 1-498): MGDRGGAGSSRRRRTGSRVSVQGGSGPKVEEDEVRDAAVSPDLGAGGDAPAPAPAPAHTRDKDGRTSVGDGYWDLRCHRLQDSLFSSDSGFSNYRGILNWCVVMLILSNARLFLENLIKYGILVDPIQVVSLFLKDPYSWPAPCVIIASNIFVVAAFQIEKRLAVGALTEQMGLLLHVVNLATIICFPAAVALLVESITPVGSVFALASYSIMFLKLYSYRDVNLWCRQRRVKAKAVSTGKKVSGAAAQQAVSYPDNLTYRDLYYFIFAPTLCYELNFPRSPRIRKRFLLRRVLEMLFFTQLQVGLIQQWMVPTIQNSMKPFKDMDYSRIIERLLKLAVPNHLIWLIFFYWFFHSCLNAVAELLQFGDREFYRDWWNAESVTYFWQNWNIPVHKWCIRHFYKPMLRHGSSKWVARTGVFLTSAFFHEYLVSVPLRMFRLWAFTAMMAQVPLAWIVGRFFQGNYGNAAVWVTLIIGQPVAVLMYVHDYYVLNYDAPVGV
Procedure: as §2, §3

fraction unbound [1] | Tmax [2] | concentration at 24 h ([2]; means ± SD) | Kp ([2]; means ± SD) | Cmax ([2]; means ± SD) | C max in intestine ([2]; means ± SD) | C max in skin ([2]; means ± SD) | logD (Log D (lipophilicity)) | SMILES | inhibition of triglyceride synthesis (mouse skin homogenates) | inhibition of cellular triglyceride synthesis (HT-29 human colon cells) | inhibition of cellular triglyceride synthesis (HepG2 human liver cells) | skin aberrations (histopathology) [3] | further results
0.032 | 1 h | 24 ± 1.6 µM | 0.32 | 240 ± 59 µM | 77 ± 37 µmol/kg | 14 ± 0.62 µmol/kg | < 0.9 | CC1(C)Oc2ncnc(N)c2N=C1c1ccc([C@H]2CC[C@H](CC(=O)O)CC2)cc1 [Compound A, 4-[4-(4-amino-2,7,7-trimethyl-7H-pyrimido[4,5-b][1], [4]oxazin-6-yl)phenyl]-trans-Cyclohexaneacetic acid] | inhibited the cellular triglyceride synthesis | significant inhibition was observed at 1 and 3 µM | at all the concentrations tested | skin aberrations derived from atrophy of the sebaceous gland; also recorded: moderate skin aberrations | injurious or inflammatory changes of the skin ([3]; 30 mg/kg once daily): no injurious or inflammatory changes; recovery of skin aberrations after compound withdrawal ([3]; 30 mg/kg once daily, then withdrawal): 2 weeks
0.001 | 1 h | 19 ± 3.7 µM | 10 | 9.1 ± 2.3 µM | 92 ± 36 µmol/kg | 1.3 ± 0.51 µmol/kg | < 0.9 | O=C(Nc1ccccc1)Nc1ccc(-c2ccc(C(=O)[C@@H]3CCC[C@H]3C(=O)O)cc2)cc1 [Compound B, (1R, 2R)-2-[[4′-[[(Phenylamino)carbonyl]amino][1,1′-biphenyl]-4-yl]carbonyl]cyclopentanecarboxylic acid] | inhibited the cellular triglyceride synthesis | significant inhibition was observed at 1 and 3 µM | at all the concentrations tested | changes in the skin were not observed; also recorded: no skin aberrations | skin/IC50 (C max in skin/mDGAT1 IC50) ([2]; means ± SD): 0.084±0.033; Intestine/Plasma ratio at T max ([2]; means ± SD, 30 mg/kg): 10±2.8; Intestine/Skin ratio at T max ([2]; means ± SD, 30 mg/kg): 74 and 74±8.4; plasma GLP-1 levels after corn oil administration [4]: increased plasma glucagon-like peptide-1 (GLP-1) levels; IC50 (human DGAT1): 8.4 nM; fatty liver (histological analysis) ([5]; 10 or 30 mg/kg): attenuated fatty liver; body weight gain ([5]; oral 1, 3, 10 or 30 mg/kg twice daily): significant attenuation and significant reduction were observed at 10 mg/kg and 30 mg/kg, respectively; concentration of total-cholesterol in the liver ([5]; oral twice daily): significant reduction was observed at 30 mg/kg; concentration of triglyceride in the liver ([5]; oral twice daily): significant reduction was observed at 30 mg/kg; liver weight ([5]; oral twice daily): lack of differences in the liver weight among the groups; plasma glucose levels ([5]; oral twice daily): significant reduction was observed at 30 mg/kg; plasma insulin concentrations ([5]; oral twice daily): tended to decrease; weight of epididymal fat ([5]; oral twice daily): significant reduction was observed at 30 mg/kg; weight of mesenteric fat ([5]; oral twice daily): significant reduction was observed at 30 mg/kg; plasma triglyceride levels after corn oil ([6]; oral 0.3, 1, 3 or 10 mg/kg 12 h before 3 ml/kg corn oil): reduced plasma triglyceride levels with a dose-dependent tendency; dose of maximum efficacy on plasma triglyceride ([6]; oral, 12 h before corn oil): 10 mg/kg; IC50 (mouse DGAT1): 15.5 nM
